Experimental data as given in US4015974A, “Amido phosphorothiolates” (priority 1972, dated 1977).

Assays:
Type in all cases: in vivo
[1] = tested on: barnyard grass (Echinochloa crus-galli); assay: Pre-emergence application, herbicidal effect on barnyard grass (Table 1); set-up: key: 0: not damaged; 5: completely killed; settings: 20 days after application, score 0-5
In short: (§1)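 Scores run from 0 (undamaged) to 5 (fully killed), read 20 days post-treatment. Compounds were applied as water-diluted wettable powders to soil over freshly covered seeds in ~10 cm pots, with plants kept in a greenhouse.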

[2] = tested on: large crabgrass (Digitaria sanguinalis); assay: Pre-emergence application, herbicidal effect on large crabgrass (Table 1); set-up: key: 0: not damaged; 5: completely killed; settings: 20 days after application, score 0-5
In short: as §1

[3] = tested on: radish; assay: Pre-emergence application, herbicidal effect on radish (Table 1); set-up: key: 0: not damaged; 5: completely killed; settings: 20 days after application, score 0-5
In short: as §1

[4] = tested on: redroot pigweed (Amaranthus retroflexus); assay: Pre-emergence application, herbicidal effect on redroot pigweed (Table 1); settings: 20 days after application, score 0-5
In short: as §1

[5] = tested on: common purslane (Portulaca oleracea); assay: Pre-emergence application, herbicidal effect on common purslane (Table 1); settings: 20 days after application, score 0-5
In short: as §1

[6] = tested on: common lambsquarter (Chenopodium album); assay: Pre-emergence application, herbicidal effect on common lambsquarter (Table 1); set-up: key: 0: not damaged; 5: completely killed; settings: 20 days after application, score 0-5
In short: as §1

[7] = tested on: rice; assay: Water application, phytotoxicity on rice (Table 2); set-up: key: 0: no effect; 1: very slightly affected; 2: slightly affected; 3: moderately affected; 4: considerably affected; 5: completely killed; settings: 25 days, score 0-5
In short: (§2)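 Scores (0–5) taken 25 days post-treatment. Wettable-powder formulations were applied into standing water over paddy soil holding 3-leaf-stage transplanted rice, sown Echinochloa and naturally emerging monochoria, false pimpernel and toothcup.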

[8] = tested on: barnyard grass (Echinochloa crus-galli); assay: Water application, herbicidal effect on barnyard grass (Table 2); set-up: key: 0: not damaged; 5: completely killed; settings: 25 days, score 0-5
In short: as §2

[9] = tested on: broad-leaved weeds, e.g., monochoria, false pimpernel and toothcup; assay: Water application, herbicidal effect on broad-leaved weeds (Table 2); set-up: key: 0: not damaged; 5: completely killed; settings: 25 days, score 0-5
In short: as §2

[10] = tested on: broad-leaved weeds, e.g., monochoria, false pimpernel and toothcup; assay: as above; set-up: key: 0: no effect; 1: very slightly affected; 2: slightly affected; 3: moderately affected; 4: considerably affected; 5: completely killed; settings: 10 g/a, 25 days, score 0-5
From the text: Wagner pots of 14 cm. in diameter, which had been packed with 1.5 kg. of paddy field soil, were brought into the state of paddy fields. To the pots were transplanted rice seedlings at the 3-leave stage. Further, seeds of barnyard grass (Echinochloa crus-galli) were sowed in the pots and required amounts of test compounds were applied to the soil under water lodged condition. 25 days after application, the degrees of herbicidal activity and phytotoxity were investigated on above-mentioned plants which had been transplanted and sowed, and on broad-leaved weeds, e.g., monochoria (Monochoria viaginalis Presl.), false pimpernel (Linderna pyxidaria) and toothcup (Rotala indica Koehue), which had been spontaneously germinated. The test compounds were used in the form of wettable powder. The herbicidal effects and the phytotoxity were evaluated as follows by the numerals ranging from 0 to 5.

[11] = tested on: nematode; assay: Effect on nematode (Table 7); set-up: tested at 500 ppm; settings: 500 p.p.m., 24 hours
Protocol: 0.5 ml. of a nematode-containing aqueous solution separated from food according to Baermann's method was placed in a test tube with ground stopper containing 0.5 ml. of an aqueous dilute solution of each emulsifiable concentrates of the present compounds. The concentration of the active ingredient in the mixture was adjusted to 500 p.p.m. After 24 hours, the death and alive were observed microscopically to calculate the mortality.

CCCOP(=O)(SCC(=O)N1CCCCC1C)SC(C)C (stereo not shown) [Compound 36]
Herbicidal effect, barnyard grass ([1]; 10 g./a.): 4 | Herbicidal effect, barnyard grass ([1]; 20 g./a.): 4 | Herbicidal effect, barnyard grass ([1]; 40 g./a.): 5 | Herbicidal effect, large crabgrass ([2]; 10 g./a.): 4 | Herbicidal effect, large crabgrass ([2]; 20 g./a.): 4 | Herbicidal effect, large crabgrass ([2]; 40 g./a.): 5 | Herbicidal effect, radish ([3]; 10 g./a.): 0 | Herbicidal effect, radish ([3]; 20 g./a.): 0 | Herbicidal effect, radish ([3]; 40 g./a.): 0 | Herbicidal effect, redroot pigweed ([4]; 10 g./a.): 3 | Herbicidal effect, redroot pigweed ([4]; 20 g./a.): 4 | Herbicidal effect, redroot pigweed ([4]; 40 g./a.): 4 | Herbicidal effect, common purslane ([5]; 10 g./a.): 3 | Herbicidal effect, common purslane ([5]; 20 g./a.): 4 | Herbicidal effect, common purslane ([5]; 40 g./a.): 4 | Herbicidal effect, common lambsquarter ([6]; 10 g./a.): 4 | Herbicidal effect, common lambsquarter ([6]; 20 g./a.): 4 | Herbicidal effect, common lambsquarter ([6]; 40 g./a.): 5 | Phytotoxicity on rice ([7]; 10 g/a): 0 | Phytotoxicity on rice ([7]; 20 g/a): 0 | Phytotoxicity on rice ([7]; 40 g/a): 0 | Herbicidal effects, barnyard grass ([8]; 10 g/a): 5 | Herbicidal effects, barnyard grass ([8]; 20 g/a): 5 | Herbicidal effects, barnyard grass ([8]; 40 g/a): 5 | Herbicidal effects, broad-leaved weeds ([9]; 20 g/a): 5 | Herbicidal effects, broad-leaved weeds ([9]; 40 g/a): 5 | Herbicidal effects, broad-leaved weeds [10]: 4

CCCCCCCCSP(=O)(OCC)SCC(=O)N1CCCCC1C (stereo not shown) [Compound 8]
Herbicidal effect, barnyard grass ([1]; 10 g./a.): 4 | Herbicidal effect, barnyard grass ([1]; 20 g./a.): 4 | Herbicidal effect, barnyard grass ([1]; 40 g./a.): 5 | Herbicidal effect, large crabgrass ([2]; 10 g./a.): 4 | Herbicidal effect, large crabgrass ([2]; 20 g./a.): 4 | Herbicidal effect, large crabgrass ([2]; 40 g./a.): 5 | Herbicidal effect, radish ([3]; 10 g./a.): 0 | Herbicidal effect, radish ([3]; 20 g./a.): 0 | Herbicidal effect, radish ([3]; 40 g./a.): 0 | Herbicidal effect, redroot pigweed ([4]; 10 g./a.): 3 | Herbicidal effect, redroot pigweed ([4]; 20 g./a.): 4 | Herbicidal effect, redroot pigweed ([4]; 40 g./a.): 4 | Herbicidal effect, common purslane ([5]; 10 g./a.): 4 | Herbicidal effect, common purslane ([5]; 20 g./a.): 4 | Herbicidal effect, common purslane ([5]; 40 g./a.): 4 | Herbicidal effect, common lambsquarter ([6]; 10 g./a.): 3 | Herbicidal effect, common lambsquarter ([6]; 20 g./a.): 4 | Herbicidal effect, common lambsquarter ([6]; 40 g./a.): 4 | Phytotoxicity on rice ([7]; 10 g/a): 0 | Phytotoxicity on rice ([7]; 20 g/a): 0 | Phytotoxicity on rice ([7]; 40 g/a): 0 | Herbicidal effects, barnyard grass ([8]; 10 g/a): 5 | Herbicidal effects, barnyard grass ([8]; 20 g/a): 5 | Herbicidal effects, barnyard grass ([8]; 40 g/a): 5 | Herbicidal effects, broad-leaved weeds ([9]; 20 g/a): 5 | Herbicidal effects, broad-leaved weeds ([9]; 40 g/a): 5 | Herbicidal effects, broad-leaved weeds [10]: 4

CCOP(=O)(SCC(=O)N1CCCCC1C)SC1CCCCC1 (stereo not shown) [Compound 10]
Herbicidal effect, barnyard grass ([1]; 10 g./a.): 4 | Herbicidal effect, barnyard grass ([1]; 20 g./a.): 4 | Herbicidal effect, barnyard grass ([1]; 40 g./a.): 5 | Herbicidal effect, large crabgrass ([2]; 10 g./a.): 4 | Herbicidal effect, large crabgrass ([2]; 20 g./a.): 4 | Herbicidal effect, large crabgrass ([2]; 40 g./a.): 5 | Herbicidal effect, radish ([3]; 10 g./a.): 0 | Herbicidal effect, radish ([3]; 20 g./a.): 0 | Herbicidal effect, radish ([3]; 40 g./a.): 0 | Herbicidal effect, redroot pigweed ([4]; 10 g./a.): 3 | Herbicidal effect, redroot pigweed ([4]; 20 g./a.): 4 | Herbicidal effect, redroot pigweed ([4]; 40 g./a.): 4 | Herbicidal effect, common purslane ([5]; 10 g./a.): 3 | Herbicidal effect, common purslane ([5]; 20 g./a.): 4 | Herbicidal effect, common purslane ([5]; 40 g./a.): 4 | Herbicidal effect, common lambsquarter ([6]; 10 g./a.): 3 | Herbicidal effect, common lambsquarter ([6]; 20 g./a.): 4 | Herbicidal effect, common lambsquarter ([6]; 40 g./a.): 4 | Phytotoxicity on rice ([7]; 10 g/a): 0 | Phytotoxicity on rice ([7]; 20 g/a): 0 | Phytotoxicity on rice ([7]; 40 g/a): 0 | Mortality [11]: 100% | Herbicidal effects, barnyard grass ([8]; 10 g/a): 5 | Herbicidal effects, barnyard grass ([8]; 20 g/a): 5 | Herbicidal effects, barnyard grass ([8]; 40 g/a): 5 | Herbicidal effects, broad-leaved weeds ([9]; 20 g/a): 5 | Herbicidal effects, broad-leaved weeds ([9]; 40 g/a): 5 | Herbicidal effects, broad-leaved weeds [10]: 4

CCCCSP(=O)(OCCC)SCC(=O)N1CCCCC1C (stereo not shown) [Compound 17]
Herbicidal effect, barnyard grass ([1]; 10 g./a.): 4 | Herbicidal effect, barnyard grass ([1]; 20 g./a.): 4 | Herbicidal effect, barnyard grass ([1]; 40 g./a.): 5 | Herbicidal effect, large crabgrass ([2]; 10 g./a.): 4 | Herbicidal effect, large crabgrass ([2]; 20 g./a.): 5 | Herbicidal effect, large crabgrass ([2]; 40 g./a.): 5 | Herbicidal effect, radish ([3]; 10 g./a.): 0 | Herbicidal effect, radish ([3]; 20 g./a.): 0 | Herbicidal effect, radish ([3]; 40 g./a.): 0 | Herbicidal effect, redroot pigweed ([4]; 10 g./a.): 3 | Herbicidal effect, redroot pigweed ([4]; 20 g./a.): 4 | Herbicidal effect, redroot pigweed ([4]; 40 g./a.): 4 | Herbicidal effect, common purslane ([5]; 10 g./a.): 3 | Herbicidal effect, common purslane ([5]; 20 g./a.): 4 | Herbicidal effect, common purslane ([5]; 40 g./a.): 4 | Herbicidal effect, common lambsquarter ([6]; 10 g./a.): 4 | Herbicidal effect, common lambsquarter ([6]; 20 g./a.): 4 | Herbicidal effect, common lambsquarter ([6]; 40 g./a.): 5 | Phytotoxicity on rice ([7]; 10 g/a): 0 | Phytotoxicity on rice ([7]; 20 g/a): 0 | Phytotoxicity on rice ([7]; 40 g/a): 0 | Herbicidal effects, barnyard grass ([8]; 10 g/a): 5 | Herbicidal effects, barnyard grass ([8]; 20 g/a): 5 | Herbicidal effects, barnyard grass ([8]; 40 g/a): 5 | Herbicidal effects, broad-leaved weeds ([9]; 20 g/a): 5 | Herbicidal effects, broad-leaved weeds ([9]; 40 g/a): 5 | Herbicidal effects, broad-leaved weeds [10]: 4
